Measured values as given in PubChem BioAssay AID2305 (GlaxoSmithKline (GSK), 2010).

System: P. falciparum 3D7 growth, pLDH absorbance
Experiment: P. falciparum 3D7 growth inhibition, dose response, strain 3D7 (AID 2305)

Compared with `Cc1cc(F)ccc1-c1nc(N(C)CCN(C)C(=O)N(C)c2ccccc2)nc2c1ccc(=O)n2-c1c(F)cccc1F`, `COc1ccc(CNCc2cccc(-c3cccc(-c4nc5ccc(F)cc5[nH]4)c3)c2)cc1` is 4.1-fold lower in IC50: 1240 nM for the first, 300 nM for the second. The second is the more potent here.

`COc1cc(F)c2nccc([C@@H](O)CN3CCC(NCc4nc5c(F)cccc5[nH]4)CC3)c2c1` and `Cc1cc2nc(-c3ccc(/C=C/C(=O)NC4CCN(Cc5ccccc5)CC4)cc3)[nH]c2cc1C` are within 1.5-fold of each other in IC50: 850 nM for the first, 590 nM for the second.

First: CCCCOC(=O)[C@H](CCC)NC(=O)c1ccc(NS(=O)(=O)c2ccc3nc(N)[nH]c(=O)c3c2)cc1
Second: O=C(NCCCCN1CCN(c2ccc3c(c2)CCC3)CC1)c1ccc(NC(=O)c2ccc(Cl)cc2)cc1
The IC50 of the first is 3.4-fold lower: 200 nM for the first, 680 nM for the second.

First: CCOc1ccc(CNCCCCCCNCc2ccc(OCC)c3ccccc23)c2ccccc12
Second: Oc1ccc(CCNCCCCCCNCCc2ccc(Br)cc2)cc1O
The IC50 of the first is 2.3-fold lower: 450 nM for the first, 1020 nM for the second.

`COc1ccccc1C(C)NCC(=O)Nc1cc(C(F)(F)F)ccc1Cl` (stereo unspecified) and `O=c1cc(NCCCNCc2cccc(C(F)(F)F)c2Cl)[nH]c2ccccc12` are within 1.5-fold of each other in IC50: 780 nM for the first, 800 nM for the second.

Going from `CCc1c[nH]c2c(N3CCCS3(=O)=O)cc(C(=O)N[C@@H](Cc3ccccc3)[C@H](O)CNC(C)(C)c3cccc(C(F)(F)F)c3)cc12` to `COc1ccc(-c2ccc([N+](=O)[O-])cc2C(=O)NCC(C)Oc2ccc(C(F)(F)F)cc2)cc1` (stereo unspecified), the IC50 rises from 230 nM to 550 nM (2.4-fold).

Going from `O=C(Nc1cccc(-c2csc(-c3nc4ccccc4[nH]3)c2)c1)c1cc(=O)c2ccccc2[nH]1` to `c1ccc(CN2CCN(CCNc3c4ccccc4nc4ccccc34)CC2)cc1`, the IC50 rises from 230 nM to 880 nM (3.8-fold). The first is the more potent here.

Compared with `Cc1nc(SCC(=O)N2CCCC2=O)c2c(C)c(C)sc2n1`, `CCN(CCCN1CCCCC1)c1cc(C)nc(Nc2ccc(Cl)cc2C)n1` is 4.3-fold higher in IC50: 170 nM for the first, 730 nM for the second. The first is the more potent here.

First: Clc1ccc(CNC2CCN(CC3CCCCC3)CC2)cc1
Second: CCc1ccc(NC(=O)c2ccc(CN3CCCN(CC4CCCCC4)CC3)cc2)cc1
The IC50 of the first is 1.6-fold higher: 1110 nM for the first, 710 nM for the second.

`O=C(Nc1ccc(C(F)(F)F)cc1)NC1CCN(CCCCCNC(=O)[C@@H]2C[C@H]2c2ccc(Cl)c(Cl)c2)CC1` and `COc1cccc(NC(=O)c2ccc(NCCCN3CCC(C)CC3)c([N+](=O)[O-])c2)c1` are within 1.5-fold of each other in IC50: 630 nM for the first, 770 nM for the second.

Going from `CC(C)C1=NCc2ccc([N+](=O)[O-])cc2C(=O)N1` to `Cn1c(Cc2ccccc2)nnc1Sc1ccc(C#N)c([N+](=O)[O-])c1`, the IC50 rises from 150 nM to 910 nM (6.1-fold). The first is the more potent here.

First: CS(=O)(=O)c1ccc(CCNCc2ccc(-c3ccc(CN(C(=O)C4CC(=O)c5ccccc54)C4Cc5ccccc5C4)cc3)nc2)cc1 (stereo unspecified)
Second: Cc1[nH]c(C)c(-c2ccc(-c3ccccc3Cl)nc2)c(=O)c1Br
The IC50 of the first is 5.1-fold higher: 860 nM for the first, 170 nM for the second.

`CNCCNC(=O)C1Cc2c([nH]c3c(C)cccc23)C(c2ccc(Cl)c(Cl)c2)N1` (stereo unspecified) and `CO/C(=C\C=C\c1cc2cc(Cl)c(Cl)cc2[nH]1)C(=O)NCCCN1CCN(c2cccc(CCCO)c2)CC1` are within 1.5-fold of each other in IC50: 720 nM for the first, 1030 nM for the second.

`CCCC(C(=O)OCCN(CC)CC)(c1ccc(Cl)cc1)c1ccc(Cl)cc1` and `COc1ccc(-n2nc(C)cc2C(=O)NCc2ccc(-c3c(C)noc3C)cc2)cc1` are within 1.5-fold of each other in IC50: 880 nM for the first, 980 nM for the second.

Going from `Cc1nc(N)nc(N)c1-c1ccc(Cl)c(Cl)c1` to `CN(C)CCNc1ncnc2c1[nH]c1ccc(Cl)cc12`, the IC50 rises from 80 nM to 600 nM (7.5-fold).

`COc1ccccc1CN1CCC(CNC(=O)c2cc(-c3ccc(N(C)C)cc3)cs2)C1` (stereo unspecified) and `CCN1CCN(CCNc2c3ccccc3nc3ccccc23)CC1` are within 1.5-fold of each other in IC50: 1270 nM for the first, 1020 nM for the second.

Going from `Clc1cc(Br)ccc1-c1ccc(CNCC2CCNCC2)o1` to `CC1CCC(NCc2ccc3c(CNC4CCC(C)CC4)c(O)ccc3c2O)CC1` (stereo unspecified), the IC50 falls from 1510 nM to 120 nM (13-fold).

Compared with `COC(=O)c1cccc(CN(CCC(O)(C(F)(F)F)C(F)(F)F)C(=O)CC2CCCC2)c1`, `CC(=NNC(N)=O)C1=C(O)C(c2ccccc2)N(C2CCCCC2)C1=O` (stereo unspecified) is 30-fold lower in IC50: 910 nM for the first, 30 nM for the second.

First: S=C(NCCc1ccccc1)Nc1ccc2ncsc2c1
Second: Cc1ccc2nc(C)cc(NN=CC=Cc3ccccc3)c2c1
The IC50 of the first is 1.7-fold higher: 1400 nM for the first, 840 nM for the second.

Compared with `CC(=O)c1cc(N2CCCC2)ccc1N`, `CCCc1nc2c(N3CCCN(C(=O)NC4CCCCC4)CC3)cccc2n1Cc1ccccn1` is 58-fold higher in IC50: 20 nM for the first, 1160 nM for the second. The first is the more potent here.

Compound `Nc1ccc(-c2csc(Nc3ccncc3)n2)cc1` has an IC50 of 940 nM.
